This note sets out measurements from PubChem BioAssay (NCI).

Some test systems named below: NCI-H226 lung; CCRF-CEM leukemia; HCC-2998 colon; SN12C renal; A498 renal; SK-OV-3 ovarian; U251 CNS; KM12 colon; EKVX NSCLC; A549 NSCLC; SR leukemia; SF-539 CNS; SK-MEL-2 melanoma; SF-295 CNS; NCI-H460 lung; NCI/ADR-RES ovarian; RPMI-8226 leukemia.
What all share (assay): NCI tumour cell line growth inhibition, 48 h

The structures appear in SMILES notation.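 Dose response: 5 concentrations. Exposure: 48 h. Format: 96-well plates. Endpoint: linear interpolation; highest concentration if not reached. TGI denotes the concentration required for complete inhibition of growth.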

Take `O=C1Nc2cc([N+](=O)[O-])ccc2C(=O)N2CCC[C@@H]12`: the TGI in the assay on NCI-H226 lung, in the assay with CCRF-CEM leukemia, in the assay with HCC-2998 colon, in the assay with SN12C renal, with A498 renal and in the assay with SK-OV-3 ovarian was greater than 100 µM in each case. The TGI in the assay with U251 CNS, in the assay on KM12 colon, in the assay on EKVX NSCLC, in the assay on A549 NSCLC, in the assay with SR leukemia and in the assay with SF-539 CNS was greater than 100 µM throughout. Also, the TGI in the assay on SK-MEL-2 melanoma, with SF-295 CNS, with NCI-H460 lung, in the assay with NCI/ADR-RES ovarian and in the assay on RPMI-8226 leukemia was greater than 100 µM in each case.

With `COc1ccc(OC)c(-c2nc3ccccc3c(=O)[nH]2)c1`, the TGI in the assay with NCI-H226 lung, in the assay on CCRF-CEM leukemia, in the assay with HCC-2998 colon, with SN12C renal, in the assay on A498 renal and in the assay on SK-OV-3 ovarian was greater than 100 µM in each case. In addition, the TGI in the assay with U251 CNS, in the assay on KM12 colon, in the assay on EKVX NSCLC, with A549 NSCLC, with SR leukemia and in the assay with SF-539 CNS was greater than 100 µM each time. For the same molecule, the TGI in the assay with SK-MEL-2 melanoma, in the assay with SF-295 CNS, in the assay with NCI-H460 lung, in the assay with NCI/ADR-RES ovarian and in the assay with RPMI-8226 leukemia was greater than 100 µM each time.

On to `CN1C(=O)[C@@H]2N(CSC2(C)C)C1=S`, for which the TGI in the assay on NCI-H226 lung, with HCC-2998 colon, in the assay with SN12C renal, with A498 renal, in the assay on SK-OV-3 ovarian and with U251 CNS was greater than 100 µM in each case. Also, the TGI in the assay with KM12 colon, in the assay on EKVX NSCLC, in the assay on A549 NSCLC, in the assay on SR leukemia, in the assay with SF-539 CNS and with SK-MEL-2 melanoma was greater than 100 µM in each case. In addition, the TGI in the assay on SF-295 CNS, in the assay on NCI-H460 lung, in the assay on NCI/ADR-RES ovarian and in the assay on RPMI-8226 leukemia was greater than 100 µM throughout.

On to `COc1cc(Br)cc2nc(-c3cccs3)oc12`, for which the TGI in the assay with NCI-H226 lung, in the assay with CCRF-CEM leukemia, with HCC-2998 colon, in the assay on SN12C renal, in the assay on A498 renal and in the assay with SK-OV-3 ovarian was greater than 100 µM throughout. Besides, the TGI in the assay with U251 CNS, in the assay on KM12 colon, with EKVX NSCLC, in the assay with A549 NSCLC, in the assay on SR leukemia and in the assay on SF-539 CNS was greater than 100 µM throughout. Besides, the TGI in the assay with SK-MEL-2 melanoma, in the assay on SF-295 CNS, with NCI-H460 lung, with NCI/ADR-RES ovarian and in the assay with RPMI-8226 leukemia was greater than 100 µM each time.

For the molecule `O=C(Nc1sccc1S(=O)(=O)c1ccc(Cl)cc1)C(F)(F)F`, the TGI was greater than 100 µM with NCI-H226 lung; greater than 100 µM in the assay on HCC-2998 colon; 54.6 µM in the assay on SN12C renal; greater than 100 µM with A498 renal; greater than 100 µM with SK-OV-3 ovarian; greater than 100 µM in the assay with U251 CNS. In addition, the TGI in the assay with KM12 colon is 61.4 µM; in the assay on EKVX NSCLC, greater than 100 µM; in the assay with A549 NSCLC, greater than 100 µM; in the assay on SR leukemia, 58.3 µM; in the assay with SF-539 CNS it was 93.7 µM; with SK-MEL-2 melanoma, 48.4 µM. Moreover, the TGI is greater than 100 µM in the assay with SF-295 CNS, greater than 100 µM with NCI-H460 lung, greater than 100 µM in the assay on NCI/ADR-RES ovarian and 31.4 µM in the assay on RPMI-8226 leukemia.

For `Nc1ccc2cc3[nH]c4cc(N)ccc4c3nc2c1`, the TGI in the assay on NCI-H226 lung amounted to 1.8 µM; in the assay on HCC-2998 colon it was 0.976 µM; in the assay with SN12C renal, 1.17 µM; in the assay with A498 renal it was 1.24 µM; in the assay on SK-OV-3 ovarian it was 2.03 µM; in the assay with U251 CNS, 2.37 µM. The TGI with KM12 colon came to 1.7 µM; in the assay on EKVX NSCLC, 1.93 µM; with A549 NSCLC it was 3.38 µM; in the assay with SR leukemia it was 0.66 µM; in the assay on SF-539 CNS, 1.4 µM; in the assay with SK-MEL-2 melanoma, 1.47 µM. Also, the TGI in the assay with SF-295 CNS is 1.37 µM; with NCI-H460 lung, 0.548 µM; with NCI/ADR-RES ovarian, 2.34 µM; in the assay on RPMI-8226 leukemia, greater than 100 µM.

Turning to `CC1=C(C#N)C2C(=C(N)Oc3ccccc32)C(N)=N1` (stereo unspecified), the TGI in the assay on NCI-H226 lung was 66.2 µM; in the assay with CCRF-CEM leukemia, greater than 100 µM; in the assay with HCC-2998 colon, 69.8 µM; in the assay on SN12C renal, 72.8 µM; with A498 renal, 74.2 µM; in the assay on SK-OV-3 ovarian it was greater than 100 µM. Moreover, the TGI in the assay with U251 CNS is greater than 100 µM; with KM12 colon, 71.2 µM; with EKVX NSCLC it was 73.8 µM; with A549 NSCLC, greater than 100 µM; in the assay with SR leukemia, greater than 100 µM; in the assay with SF-539 CNS, 61.3 µM. Besides, the TGI with SK-MEL-2 melanoma is greater than 100 µM; in the assay with SF-295 CNS it was greater than 100 µM; in the assay with NCI/ADR-RES ovarian it was 45.6 µM; in the assay with RPMI-8226 leukemia, 77.3 µM.

With `COC(=O)[C@@H]1C2OC(C)(C)OC2CN1C(=O)OCc1ccccc1` (stereo partly specified), the TGI in the assay with NCI-H226 lung, with HCC-2998 colon, in the assay with SN12C renal, in the assay on A498 renal, in the assay on SK-OV-3 ovarian and in the assay with U251 CNS was greater than 100 µM each time. Moreover, the TGI in the assay with KM12 colon, with EKVX NSCLC, in the assay on A549 NSCLC, in the assay on SR leukemia, in the assay with SF-539 CNS and in the assay with SK-MEL-2 melanoma was greater than 100 µM each time. The TGI in the assay with SF-295 CNS, with NCI-H460 lung, with NCI/ADR-RES ovarian and in the assay with RPMI-8226 leukemia was greater than 100 µM throughout.

Consider `O=C1/C(=C/c2ccccc2)N=C(c2ccccc2)N1C1Nc2cc3c(cc2S1)NC(N1C(=O)/C(=C/c2ccccc2)N=C1c1ccccc1)S3` (stereo unspecified), for which the TGI in the assay with NCI-H226 lung is greater than 100 µM; in the assay with CCRF-CEM leukemia, greater than 100 µM; in the assay on HCC-2998 colon, 4.76 µM; with A498 renal, 68 µM; in the assay with SK-OV-3 ovarian it was greater than 100 µM; in the assay with U251 CNS, greater than 100 µM. The TGI with KM12 colon was 55.6 µM; with EKVX NSCLC, greater than 100 µM; with SR leukemia, greater than 100 µM; with SF-539 CNS, greater than 100 µM; in the assay with SK-MEL-2 melanoma, 77.5 µM; in the assay with SF-295 CNS it was greater than 100 µM. In addition, the TGI in the assay with NCI-H460 lung is greater than 100 µM; with NCI/ADR-RES ovarian, greater than 100 µM; in the assay with RPMI-8226 leukemia it was 68.4 µM.
